How the values were obtained:
[1] = test system: IRF3; assay: IRF3-driven luciferase reporter cell line; format: cell-based, mouse
[2] = test system: full-length mSTING in 293T cells; assay: Response of 293T cells overexpressing full-length mSTING; format: cell-based, mouse; conditions: 293T cells overexpressing mSTING; c-di-GMP 2 μg/ml transfected, DMXAA 500 μM
[3] = test system: Raw264.7 cells; assay: IFN-β secretion in Raw264.7 cells; format: cell-based; conditions: Raw264.7 mouse macrophage cell line
[4] = molecular target: hSTING CTD (amino acid residues 139-379) (Homo sapiens, UniProt Q86WV6); assay: Isothermal titration calorimetry, hSTING-CTD; format: binding
[5] = test system: TBK1 in Raw264.7 cells; assay: TBK1 phospho-Ser 172 immunoblot in Raw264.7 cells; format: cell-based, mouse
[6] = test system: human leukocytes; conditions: cited from earlier work
[7] = molecular target: T1, mSTING CTD (Mus musculus, UniProt Q3TBT3); assay: Fluorescence polarization competition assay with fluorescein-labeled c-di-GMP; format: binding; conditions: FP
T1 sequence (Q3TBT3 139-378): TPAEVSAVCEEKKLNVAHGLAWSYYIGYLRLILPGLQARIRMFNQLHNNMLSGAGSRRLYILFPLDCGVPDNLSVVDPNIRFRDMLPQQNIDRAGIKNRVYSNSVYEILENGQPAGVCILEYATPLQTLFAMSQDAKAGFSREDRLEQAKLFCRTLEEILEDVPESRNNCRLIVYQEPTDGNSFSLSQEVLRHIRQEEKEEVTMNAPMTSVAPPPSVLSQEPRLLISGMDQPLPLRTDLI

[8] = molecular target: T2, mSTING CTD (amino acids 139-378) (Mus musculus, UniProt Q3TBT3); assay: Isothermal titration calorimetry, mSTING-CTD; format: binding; conditions: ITC
T2 sequence (Q3TBT3 139-378): T1 sequence (Q3TBT3 139-378)

Chain of hSTING CTD (amino acid residues 139-379) (Q86WV6 140-379): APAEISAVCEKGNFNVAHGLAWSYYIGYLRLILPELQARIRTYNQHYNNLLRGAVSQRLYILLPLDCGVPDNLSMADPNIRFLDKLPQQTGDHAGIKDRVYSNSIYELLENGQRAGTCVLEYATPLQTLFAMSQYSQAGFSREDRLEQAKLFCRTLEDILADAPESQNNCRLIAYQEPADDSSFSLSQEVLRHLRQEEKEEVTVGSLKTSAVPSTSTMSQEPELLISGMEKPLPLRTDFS

| SMILES | IRF3 activation and nuclear translocation [1] | responsiveness of cells [2] | IFN-β secretion [3] | interaction with hSTING CTD ([4]; ITC) | affinity for the CTD of hSTING lower than for mSTING ([4]; from upper bound of detection by ITC ∼100 μM) | TBK1 phosphorylation (phospho-Ser 172) [5] | IL-6, IL-8 and TNFα secretion [6] | competition with fluorescent c-di-GMP probe (apparent IC50) [7] | Kd ([4]; ITC, 25°C, hSTING CTD) [µM] | stoichiometry ([4]; ITC, hSTING CTD) | higher binding affinity of the mouse homolog vs hSTING ([8]; mSTING CTD vs hSTING CTD) [fold] | Kd ([8]; read-out: dissociation constant (Kd), 25°C, mSTING CTD) [µM] |
| --- | --- | --- | --- | --- | --- | --- | --- | --- | --- | --- | --- | --- |
| Cc1ccc2c(=O)c3cccc(CC(=O)O)c3oc2c1C [DMXAA, 5,6– dimethylxanthenone-4-acetic acid] | induces IRF3 activation and nuclear translocation | responsive | induces IFN-β secretion | no interaction | at least 1000 fold | became phosphorylated in response to DMXAA in a dose- and time-dependent manner | – | – | – | – | – | – |
| Cc1cccc2oc3c(CC(=O)O)cccc3c(=O)c12 [XAA-8Me] | – | – | – | – | – | – | increased | – | – | – | – | – |
| Nc1nc2c(ncn2[C@@H]2O[C@@H]3COP(=O)(O)O[C@H]4[C@@H](O)[C@H](n5cnc6c(=O)[nH]c(N)nc65)O[C@@H]4COP(=O)(O)O[C@H]3[C@H]2O)c(=O)[nH]1 [c-di-GMP, cyclic-di-GMP] | – | responsive | – | – | – | – | – | competed out this signal | ~5.2 | 0.59 | ~50 | ~0.11 |
